Reference: patent US10849339B2, “Beverages containing rare sugars” (The Coca-Cola Company, priority 2013, dated 2020)

What was measured:
[1] = Sweetness evaluation against sucrose solutions in citric acid buffer, two panelists (Example 5); format: in vivo, human
Method: First, the sweetness level of 2,4-dihydroxybenzoic acid was evaluated against three solutions of 1%, 2%, and 3% sucrose. Second, the sweetness level of a solution containing D-psicose and 500 ppm 2,4-dihydroxybenzoic acid was evaluated against 5%, 6.5%, and 7% sucrose solutions. All solutions were made in citric acid/potassium citrate buffer.
(§1) Beverages were kept in the refrigerator overnight and tasted cold the following day. Two panelists evaluated the beverages. Bottles were removed from the refrigerator and about 20 ml of beverage poured in 2 oz-plastic cups. Mineral water was given for palate rinsing before tasting and between tasting different samples. Unsalted crackers were also given.

[2] = Sweetness evaluation against sucrose solutions in citric acid buffer (Example 7); format: in vivo, human
Method: 4-Amino-5-(cyclohexyloxy)-2-methylquinoline-3-carboxylic acid was evaluated at 30 ppm. First, the sweetness level of the compound was evaluated against three solutions of 1%, 1.5%, and 2% sucrose. Second, the sweetness level of a solution containing D-psicose and 30 ppm amino-5-(cyclohexyloxy)-2-methylquinoline-3-carboxylic acid was evaluated against 5%, 6%, and 7% sucrose solutions.
A solution containing a blend of sucrose and D-psicose with a total sweetness equivalent to 5.5% sucrose (3.5% sucrose and 2% SE D-psicose) was also made and evaluated for its sweetness with and without addition of 30 ppm 4-amino-5-(cyclohexyloxy)-2-methylquinoline-3-carboxylic acid. All solutions were made in citric acid/potassium citrate buffer.
as §1, with “given for thorough palate rinsing” for “given for palate rinsing”

[3] = sucrose part of the blend; from US20130041046A; cited from earlier work
[4] = Taste test with eight panelists, sweetness rated against 1%, 1.5% and 2% sucrose controls (Example 1); format: in vivo, human
Method: Taste tests were carried out with eight panelists. Bottles were removed from the refrigerator and about 50 ml of beverage was poured into 4 oz-plastic cups. Panelists were given mineral water to rinse their mouth before tasting and between tasting different samples. Unsalted crackers were also given to panelists to eat. Taste tests were done in two rounds: a first round in which a sample of D-psicose in citric acid/potassium citrate buffer and a sample of D-psicose and Reb-C in citric acid/potassium citrate buffer were evaluated, and a second round in which a sample of D-psicose in a lemon lime carbonated soft drink and a sample of D-psicose and Reb-C in a lemon lime carbonated soft drink were evaluated. In each round, panelists were asked to e choose the sweetest sample among the pair, then rate the sweetness level against control solutions of 1%, 1.5%, and 2% sucrose in citric acid/potassium citrate buffer.

[5] = Sweetness evaluation against sucrose solutions in citric acid buffer, three panelists (Example 6); format: in vivo, human; settings: D-psicose (5% SE) in citric acid buffer
[6] = Sucrose equivalence of D-psicose (background statement); format: in vivo, human; settings: 2% (w/w) in a citric acid/potassium citrate matrix
From the text: The sweetness of a non-sucrose sweetener can be measured against a sucrose reference by determining the non-sucrose sweetener's sucrose equivalence. Typically, taste panelists are trained to detect sweetness of reference sucrose solutions containing between 1-15% sucrose (w/v). Other non-sucrose sweeteners are then tasted at a series of dilutions to determine the concentration of the non-sucrose sweetener that is as sweet as a given percent sucrose reference. For example, if a 1% solution of a sweetener is as sweet as a 10% sucrose solution, then the sweetener is said to be 10 times as potent as sucrose, and has 10% sucrose equivalence.

[7] = Sweetness evaluation against sucrose solutions in citric acid buffer, two panelists (Example 8); format: in vivo, human
Method: The sweetness level of D-tagatose and FEMA GRAS FLAVOR 4701 was evaluated against 5%, 6%, and 7% sucrose solutions. All solutions were made in citric acid/potassium citrate buffer Beverages were made and chilled at 4° C. before tasting. Two panelists evaluated the beverages. Bottles were removed from the refrigerator and about 20 ml of beverage poured in 2 oz-plastic cups. Mineral water was given to panelists for palate rinsing before tasting and between tasting different samples. Unsalted crackers were also given.

[8] = Sweetness recognition threshold concentration by taste testing; format: in vivo, human
From the text: The term “sweetness recognition threshold concentration,” as generally used herein, is the lowest known concentration of a sweet compound that is perceivable by the human sense of taste, typically around 1.0% sucrose equivalence (1.0% SE). While the particular sweetness recognition threshold concentration between sweetness enhancers can vary, generally the concentration of sweetness enhancer is below 500 ppm, such as, for example, from about 5 ppm to about 300 ppm, from about 50 ppm to about 200 ppm or from about 100 ppm to about 200 ppm.
Generally, the sweetness enhancers may enhance or potentiate the sweet taste of sweeteners without providing any noticeable sweet taste by themselves when present at or below the sweetness recognition threshold concentration of a given sweetness enhancer; however, the sweetness enhancers may themselves provide sweet taste at concentrations above their sweetness recognition threshold concentration. The sweetness recognition threshold concentration is specific for a particular enhancer and can vary based on the beverage matrix. The sweetness recognition threshold concentration can be easily determined by taste testing increasing concentrations of a given enhancer until greater than 1.0% sucrose equivalence in a given beverage matrix is detected. […]

O=C(O)c1ccc(O)cc1O [2,4-dihydroxybenzoic acid]
sweetness against 1%, 2% and 3% sucrose solutions ([1]; 500 ppm alone in citric acid buffer): < 1 % sucrose | increase of detected sucrose equivalence ([1]; added at or below its sweetness recognition threshold to a beverage containing D-psicose, embodiment statement): about 1.5%

Cc1nc2cccc(OC3CCCCC3)c2c(N)c1C(=O)O [4-amino-5-(cyclohexyloxy)-2-methylquinoline-3-carboxylic acid]
sweetness with 30 ppm enhancer in combination with D-psicose individually ([2]; D-psicose part of the blend (2% SE)): 3 % SE | increase of detected sucrose equivalence ([2]; added at or below its sweetness recognition threshold, b195 after b194 (D-psicose and sucrose), embodiment statement): about 5.0% | sweetness with 30 ppm enhancer in combination with sucrose individually [3]: 7%

O=C(CO)[C@H](O)[C@H](O)[C@H](O)CO [D-psicose]
sweetness equivalence ([4]; 2% D-psicose in the absence of Rebaudioside C): 1.2 % sucrose | detected sucrose equivalence before addition of Rebaudioside C ([4]; lemon-lime carbonated soft drink, citric acid buffer, D-psicose about 2% by weight, embodiment statement): about 1.2% | sweetness against 5% and 6.5% sucrose solutions ([1]; D-psicose solution (5% SE), citric acid buffer): 5 % sucrose | sweetness against 5% and 6.5% sucrose solutions [5]: 5 % sucrose | sweetness against 5% and 6% sucrose solutions ([2]; D-psicose (5% SE) in citric acid buffer): 5 % sucrose | sucrose equivalence [6]: about 1.26%

O=C(CO)[C@@H](O)[C@@H](O)[C@H](O)CO [D-tagatose]
sweetness against 5% and 6% sucrose solutions ([7]; D-tagatose (5% SE) in citric acid buffer): 5 % sucrose

CCCNC(=O)C(C)(C)COc1cccc2c1C(N)=NS(=O)(=O)N2 [FEMA GRAS flavor 4701]
sucrose equivalence ([7]; 15 ppm alone in citric acid buffer): less than 1.0%

Rebaudioside C
sucrose equivalence ([4]; 220 ppm in citric acid/potassium citrate buffer, alone): less than 1.0% | detected sucrose equivalence after addition of Rebaudioside C ([4]; about 220 ppm added to lemon-lime carbonated soft drink, citric acid buffer, D-psicose about 2% by weight, embodiment statement): about 2.0% | sweetness recognition threshold concentration ([8]; in a citric acid/potassium citrate buffer): 270 ppm | sweetness recognition threshold concentration ([8]; in cola): about 345 ppm
